Assay results reported in article PMC9686747, “Antioxidant, Anti-α-Glucosidase, Antityrosinase, and Anti-Inflammatory Activities of Bioactive Components from Morus alba” (Antioxidants, 2022).
Where two headings read alike, the source gives them in different places.

Assays:
[1] = test system: inducible nitric oxide synthase (iNOS); assay: Western blot analysis of iNOS expression; type: cell-based, Murine; settings: LPS (100 ng/mL)-induced cells, 24 h; compared to the LPS-induced group; Figure 4
Experimental: (§1) Murine RAW264.7 macrophages were cultured at 37 °C under 5% CO2 using a culture medium that was a mixture of DMEM, 10% FBS, and 1% penicillin [29]. When the cells reached […] full growth, the seeded cells were subjected to NO measurement and iNOS protein assay.
Western blot analysis was performed according to the reference method, with slight modifications. Cells were cotreated with varying concentrations of samples and LPS (100 ng/mL) for 24 h. After washing the cells with ice-cold PBS, the proteins were collected with cell lysis buffer and stored at −20 °C for subsequent experiments. The quantified proteins were separated using a 10% SDS-polyacrylamide gel. Next, the proteins were transferred to polyvinylidene fluoride (PVDF) membranes by electrophoresis. The transferred PVDF membranes were immersed in 2% BSA blocking buffer for 2 h and washed two to three times with TBST. Proteins were visualized by specific primary antibodies and soaked overnight. The next day, PVDF membranes were subjected to the TBST wash step again to remove residual primary antibodies and soaked with secondary antibodies for 2 h. Finally, after repeating the TBST wash two to three times, immunoreactivity was detected with ECL reagents, and samples were exposed with a cold light meter and quantified with Image J.

[2] = DPPH radical scavenging activity; type: biochemical; settings: for EC50: isolated components, read-out: SC50 DPPH
Experimental: This assay was performed using a previously reported procedure. This experiment needs to be performed in the dark. Briefly, 100 µL of varying concentrations of extracts or compounds were mixed with 100 µL of 200 µM DPPH solution and incubated at room temperature for 30 min, and the absorbance was measured at 520 nm. DPPH radical scavenging activity was calculated using the following equation.
DPPH scavenging activity (%) = (A0 − A1)/A0 × 100, where A1 is the absorbance of the test sample, and A0 is the absorbance of the control (untreated group).

[3] = ABTS radical scavenging activity; type: biochemical; settings: for EC50: isolated components, read-out: SC50 ABTS
Experimental: This assay was performed using a previously reported procedure. This experiment needs to be performed in the dark. First, the reaction reagent was prepared by mixing 28 mM ABTS solution and 9.6 mM potassium persulfate solution (v/v, 1/1) and left in the dark at 4 °C for 16 h before use. The reaction reagent was diluted with ethanol until the absorbance was 0.70 ± 0.02 at 740 nm. Next, 10 μL of the extract or compound was mixed with 190 μL of the reaction reagent and incubated at room temperature for 5 min before measuring the absorbance at 740 nm. The formula of scavenging activity was calculated as follows.
ABTS radical scavenging activity (%) = (A0 − A1)/A0 × 100, where A0 and A1 are the absorbance of the control (untreated group) and test sample, respectively.

[4] = Ferric reducing antioxidant power (FRAP); type: biochemical
Experimental: The FRAP assay was performed using a previously described procedure. This experiment needs to be performed in the dark. First, the reaction reagent was obtained by mixing acetate buffer (pH 3.6), ferric chloride solution (20 mM), and TPTZ solution (10 mM TPTZ in 40 mM HCl) in a ratio of 10:1:1, respectively. Next, 900 μL of the reaction reagent was mixed with 100 μL of the sample or Trolox in an Eppendorf tube, and the absorbance was measured at 593 nm after 40 min in a dry bath at 37 °C. The FRAP of the extracts was determined by a linear standard calibration curve from 0 to 100 mM Trolox with an R^2 value of 0.9999.

[5] = test system: nitric oxide (NO) production in RAW 264.7 cells; assay: Nitric oxide inhibitory assay (Griess) in LPS-induced RAW264.7 cells; type: cell-based, Murine; settings: Mus musculus, LPS (100 ng/mL)-induced RAW 264.7 cells, read-out: NO Inhibition IC50
Experimental: as §1
The NO inhibition assay was performed as described in [29], with slight modification. RAW264.7 cells were seeded in 96 wells for 24 h. The next day, they were divided into the following groups: medium, medium with LPS (100 ng/mL) added, medium with the positive control (quercetin) and LPS added, and medium with samples and LPS (100 ng/mL) added. The reaction time between the medium and the sample was 1 h before adding LPS and waiting 20 h after adding LPS. Finally, half of the supernatant was transferred into a new 96-well plate and mixed in a 1:1 ratio with Griess reagent. After 15 min in the dark, the reaction was measured at 550 nm.

α-glucosidase = target: T1, α-glucosidase (Saccharomyces cerevisiae, UniProt P53341); assay: biochemical; type: biochemical
T1 construct: purchased Sigma-Aldrich

tyrosinase = target: T2, tyrosinase (Agaricus bisporus, UniProt C7FF04); assay: Tyrosinase inhibitory activity assay; type: biochemical
T2 construct: purchased Sigma-Aldrich

[6] = Superoxide radical scavenging activity; type: biochemical; settings: isolated components; read-out: SC50 Superoxide
Experimental: This assay was performed using a previously reported procedure. This experiment needs to be performed in the dark. Initially, NBT (300 μM), NADH (468 μM), and PMS (120 μM) were prepared using Tris-HCl buffer (16 mM, pH 8.0). Next, 50 μL of NBT and PMS and 10 μL of the extract or compound were mixed; subsequently, 50 μL of NADH solution was added and incubated at room temperature for 5 min before measuring the absorbance at 560 nm. The equation for the scavenging activity is as follows.
Superoxide radical scavenging activity = (A0 − A1)/A0 × 100, where A0 and A1 are the absorbance of the control (untreated group) and test sample, respectively.

RAW 264.7 cells = assay: MTT assay, cell viability; type: cell-based, Murine
Experimental: as §1
The MTT assay was performed according to the reference method, with slight modifications. Cells from the 96-well plates prepared for the NO inhibition assay were added to MTT stock solution (5 mg/mL) and diluted 20-fold with medium. After 2 h, all liquid was removed, and DMSO was added. The absorbance was measured at 570 nm.

[7] = isolated components, mM Trolox equivalents per gram
[8] = isolated compounds, read-out: IC50 α-Glucosidase
[9] = solvent extracts, 50% free radical scavenging

T1 sequence (P53341 whole entry): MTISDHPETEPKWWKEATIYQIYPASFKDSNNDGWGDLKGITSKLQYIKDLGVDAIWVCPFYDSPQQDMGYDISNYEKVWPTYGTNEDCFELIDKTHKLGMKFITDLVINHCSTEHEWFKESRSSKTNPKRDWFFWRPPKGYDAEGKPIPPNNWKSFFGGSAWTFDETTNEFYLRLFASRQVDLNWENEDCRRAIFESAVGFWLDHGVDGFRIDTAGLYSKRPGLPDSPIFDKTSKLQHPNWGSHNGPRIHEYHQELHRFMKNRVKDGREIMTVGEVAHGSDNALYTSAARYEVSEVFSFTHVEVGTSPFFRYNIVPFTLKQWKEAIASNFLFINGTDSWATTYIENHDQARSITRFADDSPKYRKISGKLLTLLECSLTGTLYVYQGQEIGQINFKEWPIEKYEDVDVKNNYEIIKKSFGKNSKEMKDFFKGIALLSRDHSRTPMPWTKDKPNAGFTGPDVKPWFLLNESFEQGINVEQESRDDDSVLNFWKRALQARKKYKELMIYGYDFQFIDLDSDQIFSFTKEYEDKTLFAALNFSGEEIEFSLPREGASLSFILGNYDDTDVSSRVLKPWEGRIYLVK
T2 sequence (C7FF04 1-392 limits assumed): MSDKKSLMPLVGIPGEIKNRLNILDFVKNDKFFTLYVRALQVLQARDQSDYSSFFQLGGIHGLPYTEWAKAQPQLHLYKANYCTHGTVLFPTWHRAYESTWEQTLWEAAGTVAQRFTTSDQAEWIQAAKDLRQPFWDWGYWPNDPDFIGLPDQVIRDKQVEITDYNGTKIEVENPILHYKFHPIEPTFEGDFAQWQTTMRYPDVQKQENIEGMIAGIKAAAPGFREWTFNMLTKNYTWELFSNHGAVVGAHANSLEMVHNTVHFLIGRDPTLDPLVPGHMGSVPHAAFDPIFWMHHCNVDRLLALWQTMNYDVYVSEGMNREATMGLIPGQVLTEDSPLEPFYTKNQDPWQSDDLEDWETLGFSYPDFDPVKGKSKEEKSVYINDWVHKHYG

Structure (SMILES) | EC50 [2] [µM] | EC50 [3] [µM] | TE FRAP [4, 7] [mM/g] | IC50 ([5]; isolated components) [µM] | IC50 (α-glucosidase; [8]) [µM] | IC50 (tyrosinase) [µM] | EC50 [6] [µM] | IC50 (α-glucosidase) [µM] | further results
CC(C)=CCc1c(-c2ccc(O)cc2O)oc2c3c(cc(O)c2c1=O)OC(C)(C)C=C3 [Morusin (2), morusin] | > 200 | 44.2 ± 8.07 | 583.43 ± 25.79 | 9.87 ± 0.59 | 15.7 ± 2.15 | > 400 | > 200 |  | iNOS expression (Western blot) [1]: significantly reducing the expression of iNOS
CC(C)=CCc1c(-c2ccc(O)cc2O)oc2c([C@H]3C=C(C)C[C@@H](c4ccc(O)cc4O)[C@@H]3C(=O)c3ccc(O)cc3O)c(O)cc(O)c2c1=O [Kuwanon G (5), kuwanon G] | > 200 | 9.28 ± 1.02 | 3549.22 ± 160.65 | 17.8 ± 0.5 |  | 100 ± 9.62 | 188 ± 19.1 | 7 ± 0.31 | TE FRAP ([4]; isolated components, mM Trolox equivalents per gram, listed as 5): 3549.22 ± 160.65 mM/g
CC(C)=CCc1c(O)ccc(C(=O)[C@@H]2[C@@H](c3c(O)cc(O)c4c(=O)c(CC=C(C)C)c(-c5ccc(O)cc5O)oc34)C=C(C)C[C@H]2c2ccc(O)cc2O)c1O [Kuwanon H (6), kuwanon H] | > 200 | 8.68 ± 0.93 | 1750.96 ± 36.30 | 40.5 ± 4.38 | 4.06 ± 0.12 | 218 ± 41 | > 200 |  | α-glucosidase inhibition, times more effective than acarbose (α-glucosidase; versus positive control acarbose): approximately 100 times; α-glucosidase inhibition, times more potent than other compounds (α-glucosidase; versus the other isolated compounds): 2–20 times
O=c1c(O)c(-c2ccc(O)cc2O)oc2cc(O)cc(O)c12 [Morin (1), morin] | 17.5 ± 3.43 | 12.7 ± 5.98 | 2963.28 ± 63.65 | 43.3 ± 4.61 |  | 199 ± 84.4 | 54.5 ± 19 | 90.1 ± 10.2 | TE FRAP ([4]; isolated components, mM Trolox equivalents per gram, listed as 1): 2963.28 ± 63.65 mM/g
O=c1c(O)c(-c2ccc(O)c(O)c2)oc2cc(O)cc(O)c12 [Quercetin, quercetin, reference compound] |  |  |  | 13.2 ± 2 |  |  |  |  | IC50 ([5]; solvent extracts): 3.98 ± 0.28 µg/mL; cell viability (MTT) (RAW 264.7 cells; isolated compounds, Figure 3, except for the high dose of 100 μM): slight cytotoxicity at higher doses; cell viability (MTT) (RAW 264.7 cells; solvent extracts, Figure 1): slight cytotoxicity at higher doses
Cc1cc(C(C)(C)C)c(O)c(C(C)(C)C)c1 [BHT, butylated hydroxytoluene, reference compound] | 89.8 ± 7.03 | 116 ± 25.1 | 4385.56 ± 78.88 |  |  |  |  |  | SC50 DPPH [2, 9]: 19.75 ± 1.79 µg/mL; SC50 ABTS [3, 9]: 25.87 ± 5.83 µg/mL; TE FRAP ([4]; solvent extracts, mM Trolox equivalents per gram of extract): 4385.56 ± 45.54 mM/g
Oc1cc(O)cc(/C=C/c2ccc(O)cc2O)c1 [Oxyresveratrol (3), oxyresveratrol] | 44.4 ± 12.5 | 9.5 ± 2.08 | 2402.22 ± 32.91 | 25.4 ± 3.47 |  | 1.89 ± 0.59 | > 200 | 8.35 ± 0.46 | TE FRAP ([4]; isolated components, mM Trolox equivalents per gram, listed as 3): 2402.22 ± 32.91 mM/g
O=c1ccc2ccc(O)cc2o1 [Umbelliferone (4), umbelliferone] | > 200 | > 200 | 145.23 ± 35.46 | 36.8 ± 2.26 | 492 ± 12.8 |  | > 200 |  | IC50 (tyrosinase; isolated compounds, read-out: IC50 Tyrosinase): > 400 µM
